From publication PMC11374673, “Discovery of isoquinoline sulfonamides as allosteric gyrase inhibitors with activity against fluoroquinolone-resistant bacteria” (Nature Chemistry, 2024)
Values joined by “and” are separate entries in the source; they are usually repeats but may differ in a detail not shown here. Equal entries are not always repeated. “Also recorded” adds a separate entry of the source.

Experiments:
E. coli W3110 = assay: Checkerboard assay with PMBN;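 as to checkerboard plate reading, Average values: OD600 read after 20 h incubation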;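 as to checkerboard plate reading, replicate wells: OD600 read after 20 h incubation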
HepG2 = assay: Cytotoxicity assay (MTT); assay type: cell-based, human; conditions: for IC50: MTT, 24 h
HEK293T = assay: Cytotoxicity assay (MTT); assay type: cell-based, human; conditions: for MTT data (raw readout): HEK293T; for IC50: 24 h, MTT
Procedure, shortened: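 HEK293T cells, maintained at 37 °C and 7% CO2 in Dulbecco’s modified Eagle medium with GlutaMax, antibiotics and serum, were plated in clear 96-well plates in 100 µl medium containing 1% fetal bovine serum and left 24 h to attach. After 24 h compound exposure, MTT (0.40 mg ml^−1) was added for 2 h. Formazan was dissolved in 100 µl DMSO and absorbance measured at 570 nm. Background-corrected IC50 values came from variable-slope non-linear fits.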

## O=S(=O)(NC[C@@H]1CC[C@H](c2ccc(-c3cccnc3)cc2)N1)c1cccc2cnccc12 [LEI-800]
E. coli W3110; LEI-800 0.78125 µM + PMBN 8 µM (by position)
  checkerboard plate reading, Average values: 0.1405
E. coli W3110; LEI-800 0.78125 µM + PMBN 16 µM (by position)
  checkerboard plate reading, Average values: 0.1463
E. coli W3110; LEI-800 0.78125 µM + PMBN 32 µM (by position)
  checkerboard plate reading, Average values: 0.1515
E. coli W3110; LEI-800 1.5625 µM + PMBN 0 µM (by position)
  checkerboard plate reading, Average values: 0.3277
E. coli W3110; LEI-800 1.5625 µM + PMBN 0.5 µM (by position)
  checkerboard plate reading, Average values: 0.2628
E. coli W3110; LEI-800 1.5625 µM + PMBN 1 µM
  checkerboard plate reading, replicate wells: 0.1569
E. coli W3110; LEI-800 1.5625 µM + PMBN 1 µM (by position)
  checkerboard plate reading, Average values: 0.2051
E. coli W3110; LEI-800 1.5625 µM + PMBN 2 µM
  checkerboard plate reading, replicate wells: 0.1524 and 0.1433 and 0.1454
E. coli W3110; LEI-800 1.5625 µM + PMBN 2 µM (by position)
  checkerboard plate reading, Average values: 0.1478
E. coli W3110; LEI-800 1.5625 µM + PMBN 4 µM
  checkerboard plate reading, replicate wells: 0.1452 and 0.1502 and 0.1384
E. coli W3110; LEI-800 1.5625 µM + PMBN 4 µM (by position)
  checkerboard plate reading, Average values: 0.1494
E. coli W3110; LEI-800 1.5625 µM + PMBN 8 µM (by position)
  checkerboard plate reading, Average values: 0.1497
E. coli W3110; LEI-800 1.5625 µM + PMBN 16 µM (by position)
  checkerboard plate reading, Average values: 0.1521
E. coli W3110; LEI-800 1.5625 µM + PMBN 32 µM (by position)
  checkerboard plate reading, Average values: 0.1528
E. coli W3110; LEI-800 3.125 µM + PMBN 0 µM
  checkerboard plate reading, replicate wells: 0.2026 and 0.2019 and 0.1984
E. coli W3110; LEI-800 3.125 µM + PMBN 0 µM (by position)
  checkerboard plate reading, Average values: 0.201
E. coli W3110; LEI-800 3.125 µM + PMBN 0.5 µM
  checkerboard plate reading, replicate wells: 0.1489 and 0.151 and 0.1511
E. coli W3110; LEI-800 3.125 µM + PMBN 1 µM
  checkerboard plate reading, replicate wells: 0.1556 and 0.1491 and 0.1492
E. coli W3110; LEI-800 3.125 µM + PMBN 1 µM (by position)
  checkerboard plate reading, Average values: 0.1661
E. coli W3110; LEI-800 3.125 µM + PMBN 2 µM
  checkerboard plate reading, replicate wells: 0.1469 and 0.1488 and 0.1457
E. coli W3110; LEI-800 3.125 µM + PMBN 2 µM (by position)
  checkerboard plate reading, Average values: 0.1503
E. coli W3110; LEI-800 3.125 µM + PMBN 4 µM
  checkerboard plate reading, replicate wells: 0.1605 and 0.1486 and 0.1531
E. coli W3110; LEI-800 3.125 µM + PMBN 4 µM (by position)
  checkerboard plate reading, Average values: 0.1504
E. coli W3110; LEI-800 3.125 µM + PMBN 8 µM
  checkerboard plate reading, replicate wells: 0.1502 and 0.1529 and 0.1524
E. coli W3110; LEI-800 3.125 µM + PMBN 8 µM (by position)
  checkerboard plate reading, Average values: 0.1498
E. coli W3110; LEI-800 3.125 µM + PMBN 16 µM
  checkerboard plate reading, replicate wells: 0.1512 and 0.151 and 0.1573
E. coli W3110; LEI-800 3.125 µM + PMBN 16 µM (by position)
  checkerboard plate reading, Average values: 0.1513
E. coli W3110; LEI-800 3.125 µM + PMBN 32 µM
  checkerboard plate reading, replicate wells: 0.1461 and 0.1492 and 0.1481
E. coli W3110; LEI-800 3.125 µM + PMBN 32 µM (by position)
  checkerboard plate reading, Average values: 0.1506
E. coli W3110; LPS disruption (pharmacological)
  MIC E. coli + 8 μM PMBN: 0.4 µM
E. coli W3110; checkerboard
  synergy with PMBN: potentiates; also recorded: Clear synergy
E. coli W3110; checkerboard with PMBN, E. coli W3110
  MSC: 0.39 µM
HepG2; HepG2, 0.023 uM, experiment n = 1, technical triplicates, listed as LEI-800 (102)
  MTT data (raw readout): 0.404 and 0.388 and 0.378
HepG2; HepG2, 0.023 uM, experiment n = 2, technical triplicates, listed as LEI-800 (102)
  MTT data (raw readout): 0.268 and 0.286 and 0.353
HepG2; HepG2, 0.068 uM, experiment n = 1, technical triplicates, listed as LEI-800 (102)
  MTT data (raw readout): 0.391 and 0.379 and 0.435
HepG2; HepG2, 0.068 uM, experiment n = 2, technical triplicates, listed as LEI-800 (102)
  MTT data (raw readout): 0.250 and 0.293 and 0.379
HepG2; HepG2, 0.21 uM, experiment n = 1, technical triplicates, listed as LEI-800 (102)
  MTT data (raw readout): 0.377 and 0.445 and 0.431
HepG2; HepG2, 0.21 uM, experiment n = 2, technical triplicates, listed as LEI-800 (102)
  MTT data (raw readout): 0.243 and 0.281 and 0.327
HepG2; HepG2, 0.62 uM, experiment n = 1, technical triplicates, listed as LEI-800 (102)
  MTT data (raw readout): 0.371 and 0.373 and 0.384
HepG2; HepG2, 0.62 uM, experiment n = 2, technical triplicates, listed as LEI-800 (102)
  MTT data (raw readout): 0.248 and 0.278 and 0.343
HepG2; HepG2, 1.85 uM, experiment n = 1, technical triplicates, listed as LEI-800 (102)
  MTT data (raw readout): 0.402 and 0.403 and 0.424
HepG2; HepG2, 1.85 uM, experiment n = 2, technical triplicates, listed as LEI-800 (102)
  MTT data (raw readout): 0.281 and 0.293 and 0.337
HepG2; Homo sapiens, HepG2, 24 h
  IC50: > 100 µM
HepG2; listed as LEI-800 (102)
  IC50: > 50 µM
HEK293T; 0.023 uM, experiment n = 1, technical triplicates, listed as LEI-800 (102)
  MTT data (raw readout): 1.514 and 1.430 and 1.503
HEK293T; 0.023 uM, experiment n = 2, technical triplicates, listed as LEI-800 (102)
  MTT data (raw readout): 0.881 and 0.910 and 1.010
HEK293T; 0.068 uM, experiment n = 1, technical triplicates, listed as LEI-800 (102)
  MTT data (raw readout): 1.213 and 1.245 and 1.353
HEK293T; 0.068 uM, experiment n = 2, technical triplicates, listed as LEI-800 (102)
  MTT data (raw readout): 0.864 and 0.913 and 1.008
HEK293T; 0.21 uM, experiment n = 1, technical triplicates, listed as LEI-800 (102)
  MTT data (raw readout): 1.179 and 1.313 and 1.432
HEK293T; 0.21 uM, experiment n = 2, technical triplicates, listed as LEI-800 (102)
  MTT data (raw readout): 0.911 and 0.971 and 1.136
HEK293T; 0.62 uM, experiment n = 1, technical triplicates, listed as LEI-800 (102)
  MTT data (raw readout): 1.153 and 1.305 and 1.537
HEK293T; 0.62 uM, experiment n = 2, technical triplicates, listed as LEI-800 (102)
  MTT data (raw readout): 0.849 and 0.899 and 1.012
HEK293T; 1.85 uM, experiment n = 1, technical triplicates, listed as LEI-800 (102)
  MTT data (raw readout): 1.133 and 1.157 and 1.398
HEK293T; 1.85 uM, experiment n = 2, technical triplicates, listed as LEI-800 (102)
  MTT data (raw readout): 0.878 and 0.935 and 1.030
HEK293T; Homo sapiens, HEK-293T
  IC50: 65 µM
HEK293T; listed as LEI-800 (102)
  IC50: > 50 µM
